Results from PubChem BioAssay AID1963852 (Molecular Pharmacology Branch, DTP, NCI, 2024).
Where “and” joins values, the source holds several entries; their conditions need not be identical. Equal entries are not always repeated.

Test system: 282377-053-R-J1-PDC complex spheroid viability
Assay: Anticancer human tumor 282377-053-R-J1-PDC patient-derived colon adenocarcinoma cell line growth inhibition [POLQ]
Conditions: for viability, T/C: stronger effect = lower value
Procedure: Multicellular complex tumor spheroid response to Polymerase (POL) inhibitors (novobiocin, ART-558, RP6685) in combination with a variety of drugs and investigational agents in selected tumor cell lines
The POL inhibitors (novobiocin, ART-558, and RP6685) were evaluated both individually and in combination with standard of care and investigational anticancer small molecules within a complex spheroid model of solid tumors. . Complex spheroids include a stromal component modeled by human endothelial cells (HUVEC) and fibroblasts modeled by human mesenchymal stem cells (MSCs). The concentration ranges selected for each drug and investigational agent were based upon clinically achievable concentrations if the clinical Cmax of the agent was known.
Compounds. The drugs and investigational agents: novobiocin (NSC847541), ART-558 (NSC835418), RP-6685 (NSC848927), peposertib (NSC802822), ceralasertib (NSC780249), elimusertib (NSC800525), camonsertib (NSC841442), AZD-1390 (NSC803789), olaparib (NSC753686), talazoparib (NSC767125), rucaparib (NSC756644), sotorasib (NSC818433), MRTX-1133 (NSC836407), SN-38 (NSC673596), topotecan (NSC609699), epotoside (NSC141540), doxorubicin (NSC123127), gemcitabine (NSC613327), 5-fluorouracil (NSC19893), paclitaxel (NSC125973), vemurafenib (NSC761431), MSA-2 (NSC828583), SN-011 (NSC837082), adavosertib (NSC754352), prexasertib (NSC758257), carboplatin (NSC241240) and oxaliplatin (NSC266046), were obtained from the National Cancer Institute (NCI) Developmental Therapeutics Program Chemical Repository (21). The FDA-approved anticancer drug set is available from the Developmental Therapeutics Program at https://dtp.cancer.gov/organization/dscb/obtaining/. […] The stock solutions were prepared in dimethyl sulfoxide (DMSO, Sigma-Aldrich, St. Louis, MO, cat. D2650), except for the platinum compounds which were prepared in saline (Quality Biological, Gaithersburg, MD, cat. 114-055-101), at 800-fold the tested concentration and stored at -70 degrees C prior to their use. All drugs and investigational agents were tested over a range starting from a high concentration at or near the clinical Cmax and decreasing in half-log increments. If the clinical Cmax for an agent had not been determined, the highest concentration tested was 10 microM, except for SN-38, which was tested at a high concentration of 1 microM.
Cell Culture. All cells were maintained in an incubator at 37 degrees C and 5% CO2 with 95% humidity. The PDC lines were cultured according to standard operating procedures established by the NCI PDMR (https://pdmr.cancer.gov). Table 3 of the manuscript, lists the cell lines along with the number of the three cell types plated to form the mct-spheroids and media for tumor cell growth. After thawing, all PDC lines, except 997537-175-T-J1-PDC and 415267-285-R-J2-PDC, were cultured in Matrigel-coated flasks prepared with a working solution of 1X Ham's F-12 nutrient mix, without supplementation (Thermo Fisher Scientific, cat. 11765054), 100 U/mL penicillin-streptomycin (Thermo Fisher Scientific, cat. 15140122), and 2.5% Matrigel (Corning Inc., Corning, NY, cat. 354248) for the first three passages. The two PDC lines 997537-175-T-J1-PDC and 415267-285-R-J2-PDC were cultured on uncoated flasks. The 857933-349-R-J2-PDC line was cultured in 6C/Colon 1B media containing advanced DMEM/F-12 (Thermo Fisher Scientific, cat. 12634028), 10 mM HEPES (Thermo Fisher Scientific, cat. 15630080), 1X GlutaMAX supplement (Thermo Fisher Scientific, cat. 35050061), 0.1 mg/mL primocin (InvivoGen, San Diego, CA, cat. ant-pm-2), 10% defined fetal bovine serum, heat inactivated (HyClone Laboratories Inc., Logan, UT, cat. SH30070.03HI), 50% L-WRN conditioned media (ATCC, cat. CRL-3276), 1.25 mM N-Acetyl-L-cysteine (Sigma-Aldrich, cat. A9165), 10 mM nicotinamide (Sigma-Aldrich, cat. N0636), 1X B-27 supplement (Thermo Fisher Scientific, cat. 17504044), 1X N-2 supplement (Thermo Fisher Scientific, cat. […]
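Also: spheroids exposed to compounds for seven days.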
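For viability, T/C in this document: 100% = DMSO vehicle control viability.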

Question: Which results are given for `CNCc1ccc(-c2[nH]c3cc(F)cc4c3c2CCNC4=O)cc1`?
Answer: viability, T/C (compound 0.0316 µM): 94% and 107% and 86.8%; viability, T/C (compound 0.1 µM): 89.3% and 94.2% and 86.3%; viability, T/C (compound 0.316 µM): 113% and 102% and 114%; viability, T/C (compound 1 µM): 117% and 101% and 95.7%; viability, T/C (compound 3.16 µM): 128% and 105% and 116%; viability, T/C (compound 10 µM): 125% and 115% and 151%; IC50 (curve of compound): > 10 µM

Question: Which results are given for `CCc1c2c(nc3ccc(O)cc13)-c1cc3c(c(=O)n1C2)COC(=O)[C@]3(O)CC`?
Answer: viability, T/C (compound 0.00316 µM): 106% and 102% and 122%; viability, T/C (compound 0.01 µM): 69.4% and 103% and 64.5%; viability, T/C (compound 0.0316 µM): 63.4% and 83.3% and 72.2%; viability, T/C (compound 0.1 µM): 44.6% and 68.1% and 50.9%; viability, T/C (compound 0.316 µM): 31.1% and 69.5% and 42%; viability, T/C (compound 1 µM): 20% and 66.9% and 19.1%

Question: For `COC1C(OC(N)=O)C(O)C(Oc2ccc3c(O)c(NC(=O)c4ccc(O)c(CC=C(C)C)c4)c(=O)oc3c2C)OC1(C)C` (stereo unspecified), which viability, T/C (compound 0.0316 µM) is on record?
Answer: 94.6% [middle of 13 runs]

Question: What about the viability, T/C (compound 0.316 µM) of the same compound?
Answer: 105% [middle of 13 runs]

Question: And the viability, T/C (compound 1 µM)?
Answer: 101% [middle of 13 runs]

Question: What about the viability, T/C (compound 3.16 µM) of the same compound?
Answer: 101% [middle of 13 runs]

Question: And the viability, T/C (compound 10 µM)?
Answer: 101% [middle of 13 runs]

Question: And the IC50 (compound alone, run of 10/31/2023)?
Answer: > 10 µM

Question: `O=C(c1cc(Cc2n[nH]c(=O)c3ccccc23)ccc1F)N1CCN(C(=O)C2CC2)CC1` + Cc1cccc(N(C)C(=O)C2C(O)CCN2c2nc(C)cc(C(F)(F)F)c2C#N)c1 was tested. Which IC50 (curve of first compound, second compound 0.0316 µM) did it give?
Answer: > 10 µM

Question: What about the IC50 (curve of first compound, second compound 0.1 µM) of the same compound?
Answer: > 10 µM

Question: And the IC50 (curve of first compound, second compound 0.316 µM)?
Answer: > 10 µM

Question: And the IC50 (curve of first compound, second compound 1 µM)?
Answer: > 10 µM

Question: And the IC50 (curve of first compound, second compound 3.16 µM)?
Answer: > 10 µM

Question: And the IC50 (curve of first compound, second compound 10 µM)?
Answer: > 10 µM

Question: And the viability, T/C (second compound 0.0316 µM, first compound 0.0316 µM)?
Answer: 104%

Question: And the viability, T/C (second compound 0.0316 µM, first compound 0.1 µM)?
Answer: 107%

Question: And the viability, T/C (second compound 0.0316 µM, first compound 0.316 µM)?
Answer: 109%

Question: And the viability, T/C (second compound 0.0316 µM, first compound 1 µM)?
Answer: 107%

Question: What about the viability, T/C (second compound 0.0316 µM, first compound 3.16 µM) of the same compound?
Answer: 106%

Question: And the viability, T/C (second compound 0.0316 µM, first compound 10 µM)?
Answer: 80.7%

Question: And the viability, T/C (second compound 0.1 µM, first compound 0.0316 µM)?
Answer: 110%

Question: What about the viability, T/C (second compound 0.1 µM, first compound 0.1 µM) of the same compound?
Answer: 108%

Question: And the viability, T/C (second compound 0.1 µM, first compound 0.316 µM)?
Answer: 112%

Question: And the viability, T/C (second compound 0.1 µM, first compound 1 µM)?
Answer: 90.9%

Question: What about the viability, T/C (second compound 0.1 µM, first compound 3.16 µM) of the same compound?
Answer: 116%

Question: And the viability, T/C (second compound 0.1 µM, first compound 10 µM)?
Answer: 80.4%

Question: What about the viability, T/C (second compound 0.316 µM, first compound 0.0316 µM) of the same compound?
Answer: 83.3%

Question: And the viability, T/C (second compound 0.316 µM, first compound 0.1 µM)?
Answer: 94%

Question: What about the viability, T/C (second compound 0.316 µM, first compound 0.316 µM) of the same compound?
Answer: 101%

Question: What about the viability, T/C (second compound 0.316 µM, first compound 1 µM) of the same compound?
Answer: 87.3%

Question: And the viability, T/C (second compound 0.316 µM, first compound 3.16 µM)?
Answer: 94%

Question: And the viability, T/C (second compound 0.316 µM, first compound 10 µM)?
Answer: 85.3%

Question: And the viability, T/C (second compound 1 µM, first compound 0.0316 µM)?
Answer: 100%

Question: And the viability, T/C (second compound 1 µM, first compound 0.1 µM)?
Answer: 92.2%

Question: What about the viability, T/C (second compound 1 µM, first compound 0.316 µM) of the same compound?
Answer: 108%

Question: And the viability, T/C (second compound 1 µM, first compound 1 µM)?
Answer: 111%

Question: What about the viability, T/C (second compound 1 µM, first compound 3.16 µM) of the same compound?
Answer: 107%

Question: And the viability, T/C (second compound 1 µM, first compound 10 µM)?
Answer: 95.3%

Question: What about the viability, T/C (second compound 3.16 µM, first compound 0.0316 µM) of the same compound?
Answer: 92.2%

Question: What about the viability, T/C (second compound 3.16 µM, first compound 0.1 µM) of the same compound?
Answer: 117%

Question: And the viability, T/C (second compound 3.16 µM, first compound 0.316 µM)?
Answer: 104%

Question: What about the viability, T/C (second compound 3.16 µM, first compound 1 µM) of the same compound?
Answer: 88.6%

Question: What about the viability, T/C (second compound 3.16 µM, first compound 3.16 µM) of the same compound?
Answer: 101%

Question: And the viability, T/C (second compound 3.16 µM, first compound 10 µM)?
Answer: 101%

Question: What about the viability, T/C (second compound 10 µM, first compound 0.0316 µM) of the same compound?
Answer: 84.6%

Question: And the viability, T/C (second compound 10 µM, first compound 0.1 µM)?
Answer: 110%

Question: And the viability, T/C (second compound 10 µM, first compound 0.316 µM)?
Answer: 90.4%

Question: What about the viability, T/C (second compound 10 µM, first compound 1 µM) of the same compound?
Answer: 110%

Question: And the viability, T/C (second compound 10 µM, first compound 3.16 µM)?
Answer: 87%

Question: What about the viability, T/C (second compound 10 µM, first compound 10 µM) of the same compound?
Answer: 107%
